Measurements published in ChEMBL document CHEMBL3988442, “University of Dundee, Small-Polar-MMV Screening Library” (2021).
Where “and” joins values, the source holds several entries; their conditions need not be identical. Identical values can stand only once.

Columns and labels:
Plasmodium falciparum = test: Plasmodium falciparum sporozoite viability assay; assay type: functional, organism-based; conditions: for IC50: Plasmodium falciparum
[1] = target: Polyketide synthase Pks13 (Mycobacterium tuberculosis (strain ATCC 25618 / H37Rv), UniProt I6X8D2); test: Mycobacterium tuberculosis Polyketide synthase 13 Thioesterase (PKS13); assay type: functional
Sequence of Polyketide synthase Pks13 (I6X8D2 whole entry): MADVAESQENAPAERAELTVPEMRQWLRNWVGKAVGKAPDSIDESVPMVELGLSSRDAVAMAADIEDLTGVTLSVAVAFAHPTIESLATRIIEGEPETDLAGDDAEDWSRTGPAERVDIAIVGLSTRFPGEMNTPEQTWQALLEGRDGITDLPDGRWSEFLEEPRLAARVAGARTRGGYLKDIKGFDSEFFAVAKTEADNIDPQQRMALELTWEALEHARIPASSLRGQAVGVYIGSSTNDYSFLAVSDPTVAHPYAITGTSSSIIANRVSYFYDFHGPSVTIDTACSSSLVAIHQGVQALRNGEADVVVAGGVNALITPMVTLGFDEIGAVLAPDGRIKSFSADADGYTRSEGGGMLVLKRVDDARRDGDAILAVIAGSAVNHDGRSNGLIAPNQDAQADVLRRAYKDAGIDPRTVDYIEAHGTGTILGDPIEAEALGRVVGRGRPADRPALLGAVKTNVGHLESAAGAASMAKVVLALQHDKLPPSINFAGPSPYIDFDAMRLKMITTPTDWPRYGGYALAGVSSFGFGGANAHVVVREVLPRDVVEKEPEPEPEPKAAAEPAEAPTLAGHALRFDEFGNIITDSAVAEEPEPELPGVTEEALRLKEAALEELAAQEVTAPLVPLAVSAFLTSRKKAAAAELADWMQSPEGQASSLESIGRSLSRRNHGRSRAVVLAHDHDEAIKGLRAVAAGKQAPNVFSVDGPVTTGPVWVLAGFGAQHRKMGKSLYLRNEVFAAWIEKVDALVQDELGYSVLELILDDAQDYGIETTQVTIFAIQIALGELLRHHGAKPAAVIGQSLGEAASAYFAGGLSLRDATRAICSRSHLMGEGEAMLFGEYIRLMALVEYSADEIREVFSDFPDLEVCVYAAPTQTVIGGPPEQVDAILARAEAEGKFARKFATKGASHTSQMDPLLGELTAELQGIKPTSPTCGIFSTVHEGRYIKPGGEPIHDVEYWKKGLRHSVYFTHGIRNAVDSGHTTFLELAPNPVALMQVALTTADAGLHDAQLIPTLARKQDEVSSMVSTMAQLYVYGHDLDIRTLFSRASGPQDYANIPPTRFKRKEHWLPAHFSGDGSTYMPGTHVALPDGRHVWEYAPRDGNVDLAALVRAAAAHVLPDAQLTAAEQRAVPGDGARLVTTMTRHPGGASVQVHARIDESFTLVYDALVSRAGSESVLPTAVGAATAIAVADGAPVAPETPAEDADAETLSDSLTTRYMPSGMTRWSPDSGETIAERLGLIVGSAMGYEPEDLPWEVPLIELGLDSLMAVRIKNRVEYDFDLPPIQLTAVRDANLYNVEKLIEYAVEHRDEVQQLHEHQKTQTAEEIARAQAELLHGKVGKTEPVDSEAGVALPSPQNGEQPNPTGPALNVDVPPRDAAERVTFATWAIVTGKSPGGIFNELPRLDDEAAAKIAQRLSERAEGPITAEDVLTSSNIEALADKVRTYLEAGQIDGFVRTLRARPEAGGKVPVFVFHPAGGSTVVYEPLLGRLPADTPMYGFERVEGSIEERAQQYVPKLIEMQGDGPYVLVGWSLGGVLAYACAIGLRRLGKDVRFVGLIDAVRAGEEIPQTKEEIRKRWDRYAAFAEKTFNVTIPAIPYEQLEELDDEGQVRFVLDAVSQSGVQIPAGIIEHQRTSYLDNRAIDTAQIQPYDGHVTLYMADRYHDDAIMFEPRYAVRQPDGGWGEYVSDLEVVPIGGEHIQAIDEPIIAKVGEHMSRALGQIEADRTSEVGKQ

[2] = target: Sialic acid-binding Ig-like lectin 9 (Homo sapiens, UniProt Q9Y336); test: Hs-Siglec9 ALPHAscreen SOP 20170721
Sequence of Sialic acid-binding Ig-like lectin 9 (Q9Y336 whole entry): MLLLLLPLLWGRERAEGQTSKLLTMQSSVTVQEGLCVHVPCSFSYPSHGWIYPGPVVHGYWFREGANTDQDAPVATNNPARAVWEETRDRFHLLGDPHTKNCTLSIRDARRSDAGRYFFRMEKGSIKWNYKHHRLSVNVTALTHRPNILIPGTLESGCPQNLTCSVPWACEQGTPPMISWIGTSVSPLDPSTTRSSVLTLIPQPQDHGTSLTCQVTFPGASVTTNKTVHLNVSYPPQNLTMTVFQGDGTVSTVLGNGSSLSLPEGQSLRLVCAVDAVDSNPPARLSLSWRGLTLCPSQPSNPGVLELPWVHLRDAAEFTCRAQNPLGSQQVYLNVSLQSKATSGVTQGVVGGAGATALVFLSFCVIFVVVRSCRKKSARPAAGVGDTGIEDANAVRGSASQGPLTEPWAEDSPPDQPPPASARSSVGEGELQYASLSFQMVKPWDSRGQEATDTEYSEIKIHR

[3] = target: T1, Coenzyme A biosynthesis bifunctional protein CoaBC (Mycobacterium tuberculosis (strain ATCC 25618 / H37Rv), UniProt P9WNZ1); test: Biomol Green assay for MtCoaBC inhibitor, OD650 read; assay type: functional
T1 sequence (P9WNZ1 whole entry): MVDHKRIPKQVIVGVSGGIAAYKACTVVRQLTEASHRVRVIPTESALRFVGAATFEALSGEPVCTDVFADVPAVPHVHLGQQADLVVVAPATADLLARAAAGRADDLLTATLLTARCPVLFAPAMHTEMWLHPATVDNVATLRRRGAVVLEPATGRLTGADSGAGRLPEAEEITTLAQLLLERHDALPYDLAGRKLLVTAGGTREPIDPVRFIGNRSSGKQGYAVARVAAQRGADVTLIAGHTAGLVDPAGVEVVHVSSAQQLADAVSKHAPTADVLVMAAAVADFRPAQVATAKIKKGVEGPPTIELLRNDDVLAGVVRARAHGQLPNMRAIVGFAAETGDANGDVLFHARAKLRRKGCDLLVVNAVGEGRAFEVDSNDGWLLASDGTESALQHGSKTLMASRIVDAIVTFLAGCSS

[4] = In vitro enzyme assay to detect hydrolysis of chlorophenol red-beta-D-[…] directly proportional to the number of Toxoplasma stably expressing beta-galactosidase; assay type: functional, organism-based, Toxoplasma gondii; conditions: Toxoplasma gondii
Lysine--tRNA ligase = Lysine--tRNA ligase (Plasmodium falciparum (isolate 3D7), UniProt Q8IDJ8); test: Pf-KRS-1 (Lysyl-RNA Synthetase-1, KRS-1, cytosolic KRS) from Plasmodium falciparum. Inhibitor assay, 384 well plate, luminescence read.; assay type: functional
Sequence of Lysine--tRNA ligase (Q8IDJ8 whole entry): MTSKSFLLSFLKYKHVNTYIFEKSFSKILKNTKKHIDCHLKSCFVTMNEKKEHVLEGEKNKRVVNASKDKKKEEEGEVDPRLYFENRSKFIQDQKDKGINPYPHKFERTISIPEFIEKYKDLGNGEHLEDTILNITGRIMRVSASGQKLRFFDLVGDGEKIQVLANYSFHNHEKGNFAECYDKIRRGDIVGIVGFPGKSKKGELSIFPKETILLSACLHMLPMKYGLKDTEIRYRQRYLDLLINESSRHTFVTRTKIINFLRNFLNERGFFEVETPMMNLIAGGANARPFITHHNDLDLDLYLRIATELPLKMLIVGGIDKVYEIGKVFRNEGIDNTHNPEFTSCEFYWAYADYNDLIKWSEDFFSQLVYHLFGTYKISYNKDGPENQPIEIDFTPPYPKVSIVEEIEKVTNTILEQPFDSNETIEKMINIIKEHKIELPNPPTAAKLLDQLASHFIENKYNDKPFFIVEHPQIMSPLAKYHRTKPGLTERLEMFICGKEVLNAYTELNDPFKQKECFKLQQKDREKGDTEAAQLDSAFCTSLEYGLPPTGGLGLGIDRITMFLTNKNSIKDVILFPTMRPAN

CC(C)(C)n1ncc2c(=O)n(CC(=O)NCc3ccccc3Cl)cnc21
pIC50 (Plasmodium falciparum): 7.103
IC50 (Plasmodium falciparum): 0.103 µM

CC(C)(C)n1ncc2c(=O)n(CC(=O)NCc3ccccc3)cnc21
pIC50 (Plasmodium falciparum): 7.194
IC50 (Plasmodium falciparum): 0.043 µM

COC(=O)CCCNC(=O)N1CCc2c([nH]c3ccc(Cl)cc23)C1
pIC50 (Plasmodium falciparum): 5.609 and 6.035

Cc1cc(C(=O)NCc2cc(C)oc2C)no1
IC50 [1]: > 100 µM
IC50 [2]: > 30.2 µM

O=C(NCCNc1cc(N2CCCC2)cnn1)Nc1ccccc1F
pIC50 (Plasmodium falciparum): 6.092
IC50 (Plasmodium falciparum): 0.819 µM

COCC1CN(Cc2ccsc2)Cc2cnn(C)c21 (configuration not stated)
IC50 [3]: > 30.2 µM
IC50 [2]: > 30.2 µM

NC(=O)c1ccc(NC(=O)Cn2cc(I)cn2)cc1
pIC50 (Plasmodium falciparum): 5.308
IC50 (Plasmodium falciparum): 3.07 µM

CC/N=c1\nc(NCC)nc2n1C(O)(Nc1ccc(C)cc1C)CS2 (configuration not stated)
pIC50 (Plasmodium falciparum): 5.511
IC50 (Plasmodium falciparum): 2.83 µM

O=C(Nc1ccc(Cl)cn1)c1nn(C2CCS(=O)(=O)C2)c2c1CCCC2 (configuration not stated)
pIC50 (Plasmodium falciparum): 5.512 and 5.897

O=C(Nc1cccc(Cl)c1)c1nn(C2CCS(=O)(=O)C2)c2c1CCCC2 (configuration not stated)
pIC50 (Plasmodium falciparum): 5.123
IC50 (Plasmodium falciparum): 8.15 µM

COc1c(C(=O)NCC(C)C)nnn1Cc1ccccc1
IC50 [4]: > 50.1 µM
IC50 [2]: > 30.2 µM

Cc1cc(C(=O)N2CCCC(c3cc(=O)nc4n3CCC4)C2)on1 (configuration not stated)
IC50 [3]: > 30.2 µM
IC50 [2]: > 30.2 µM

Cc1csc(NC(=O)c2cnc(C3CCCN(C)C3)cn2)n1 (configuration not stated)
pIC50 (Plasmodium falciparum): 5.674 and 6.096

Cc1ccc(Nc2nccc(C3CCN(CC(N)=O)C3)n2)nc1 (configuration not stated)
pIC50 (Plasmodium falciparum): 7.48
IC50 (Plasmodium falciparum): 0.021 µM

O[C@H]1CN(CCOc2ccc(F)cc2)CC[C@@]12CCCO2
pIC50 (Plasmodium falciparum): 5.66
IC50 (Plasmodium falciparum): 2.55 µM

CCn1cc(C(=O)N2CCOC(c3nc(-c4cccs4)no3)C2)cn1 (configuration not stated)
pIC50 (Plasmodium falciparum): 5.925 and 5.539

Cc1ccc(Nc2nccc(C3CCCN(CC(=O)N(C)C)C3)n2)nc1 (configuration not stated)
pIC50 (Plasmodium falciparum): 5.724
IC50 (Plasmodium falciparum): 2.68 µM

CC(NC(=O)c1cc(C(C)C)[nH]n1)C(=O)Nc1ccccc1 (configuration not stated)
pIC50 (Plasmodium falciparum): 7.217
IC50 (Plasmodium falciparum): 0.0489 µM

Cc1ccnc(NC(=O)c2ccc(Cl)o2)c1
pIC50 (Plasmodium falciparum): 7.621 and 7.995

CN(C)CC(C)(O)CNC(=O)Nc1sc2ccccc2c1Cl (configuration not stated)
pIC50 (Plasmodium falciparum): 5.506
IC50 (Plasmodium falciparum): 2.69 µM

Cc1nc(COc2ccc(OC3CCCCNC3=O)cc2)oc1C (configuration not stated)
pIC50 (Plasmodium falciparum): 7.451
IC50 (Plasmodium falciparum): 0.039 µM

NC(=O)C1CN(c2ccc3cc(Br)ccc3n2)CCO1 (configuration not stated)
pIC50 (Plasmodium falciparum): 7.699 and 7.366

O=C(CCn1cccn1)NS(=O)(=O)N1CCCc2ccccc21
pIC50 (Plasmodium falciparum): 6.348
IC50 (Plasmodium falciparum): 0.495 µM

Cn1cc(CCC(=O)NS(=O)(=O)N2CCCc3ccccc32)cn1
pIC50 (Plasmodium falciparum): 6.583
IC50 (Plasmodium falciparum): 0.157 µM

Cc1ncsc1CN(C)Cc1cc2c(cc1OC(F)F)OCO2
pIC50 (Plasmodium falciparum): 5.624
IC50 (Plasmodium falciparum): 3.97 µM

COCCNC(=O)Nc1cc2c(cc1SC)OCCO2
pIC50 (Plasmodium falciparum): 6.283
IC50 (Plasmodium falciparum): 0.555 µM

CSc1cc2c(cc1NC(=O)NCCn1ccnc1)OCCO2
pIC50 (Plasmodium falciparum): 6.776
IC50 (Plasmodium falciparum): 0.126 µM

CSc1cc2c(cc1NC(=O)NCC1CCOC1)OCCO2 (configuration not stated)
pIC50 (Plasmodium falciparum): 6.419
IC50 (Plasmodium falciparum): 0.218 µM

CC(C)(C)n1ncc2c1CCCC2NCc1ccc2c(c1)OCCO2 (configuration not stated)
pIC50 (Plasmodium falciparum): 6.564
IC50 (Plasmodium falciparum): 0.411 µM

CC(C)C(=O)N1CCN(Cc2csc(-c3ccccn3)n2)CC1
pIC50 (Plasmodium falciparum): 5.915
IC50 (Plasmodium falciparum): 0.965 µM

c1cc(-c2noc(CN3CCc4c(ncn4C4CC4)C3)n2)cs1
pIC50 (Plasmodium falciparum): 5.546
IC50 (Plasmodium falciparum): 2.47 µM

COCCN(C)c1ccc(NCc2cscn2)nc1
pIC50 (Plasmodium falciparum): 6.387
IC50 (Plasmodium falciparum): 0.391 µM

OC1CCN(c2ccc(CNc3nc4ccccc4s3)cc2F)CC1
pIC50 (Plasmodium falciparum): 7.297 and 6.882

CN1CCN(C2CCN(c3cnc4ccccc4n3)CC2)C1=O
pIC50 (Plasmodium falciparum): 7.03 and 7.343

CN1CCOC(C(=O)Nc2ccc3c(c2)nc(C(C)(C)C)n3C)C1 (configuration not stated)
pIC50 (Plasmodium falciparum): 7.552
IC50 (Plasmodium falciparum): 0.0169 µM

Cc1ccnc(NC(=O)CSCc2cccnc2)c1
pIC50 (Plasmodium falciparum): 7.141 and 6.819

c1cnc(N2CCC3(CCN(CC4CCOC4)CC3)CC2)nc1 (configuration not stated)
IC50 (Lysine--tRNA ligase): > 50.1 µM
IC50 [2]: > 30.2 µM

Cc1cccc(Nc2cc(C3CCCN(CC(N)=O)C3)ccn2)n1.O=CO.O=CO (configuration not stated)
pIC50 (Plasmodium falciparum): 6.742
IC50 (Plasmodium falciparum): 0.186 µM
